Laboratory results reported in the supplement of paper PMC10307832.

Tests used:
Assay in all cases: relative viability (nuclei count vs DMSO), 5 days (fraction); higher = more cells survive
[1] = compound: CN(C)CC1=CC(=CC=C1)N=C(C2=CC=CC=C2)C3=C(NC4=C3C=CC(=C4)C(=O)N(C)C)O + NC(=O)Nc1cc(-c2cccc(F)c2)sc1C(=O)N[C@H]1CCCNC1 [AZD7762] (partner 0.2 µM)
Outline: (§1)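 Lung cancer cell lines were seeded in 1536-well plates and dosed by pin tool the next day, with either a single drug or a fixed anchor-drug dose combined with five library-drug doses (not always all listed) spaced in √10 steps. Five days later, one step fixed the cells and stained their nuclei (final 0.05% Triton X-100, 1% formaldehyde, 1 ug/ml Hoechst), and nuclei were counted on 4× images. Relative viability is the nuclei count in treated wells divided by the count in vehicle wells, and each value is the median of duplicate plates.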

[2] = compound: CN(C)CC1=CC(=CC=C1)N=C(C2=CC=CC=C2)C3=C(NC4=C3C=CC(=C4)C(=O)N(C)C)O + Nc1ncn([C@H]2C[C@H](O)[C@@H](CO)O2)c(=O)n1 [Decitabine] (partner 2 µM)
Outline: as §1

[3] = compound: CN(C)CC1=CC(=CC=C1)N=C(C2=CC=CC=C2)C3=C(NC4=C3C=CC(=C4)C(=O)N(C)C)O + CC(C)C[C@H](NC(=O)[C@H](Cc1ccccc1)NC(=O)c1cnccn1)B(O)O [Bortezomib] (partner 0.002 µM)
Outline: as §1

[4] = compound: CN(C)CC1=CC(=CC=C1)N=C(C2=CC=CC=C2)C3=C(NC4=C3C=CC(=C4)C(=O)N(C)C)O + CS(=O)(=O)CCNCc1ccc(-c2ccc3ncnc(Nc4ccc(OCc5cccc(F)c5)c(Cl)c4)c3c2)o1 [Lapatinib] (partner 2 µM)
Outline: as §1

Row | Cell Line | relative viability ([1]; first compound 0.08 µM) | relative viability ([1]; first compound 0.253 µM) | relative viability ([1]; first compound 0.8 µM) | relative viability ([1]; first compound 2.53 µM) | relative viability ([1]; first compound 8 µM) | relative viability ([2]; first compound 0.08 µM) | relative viability ([2]; first compound 0.253 µM) | relative viability ([2]; first compound 0.8 µM) | relative viability ([2]; first compound 2.53 µM) | relative viability ([2]; first compound 8 µM) | relative viability ([3]; first compound 0.08 µM) | relative viability ([3]; first compound 0.253 µM) | relative viability ([3]; first compound 0.8 µM) | relative viability ([3]; first compound 2.53 µM) | relative viability ([3]; first compound 8 µM) | relative viability ([4]; first compound 0.08 µM) | relative viability ([4]; first compound 0.253 µM) | relative viability ([4]; first compound 0.8 µM) | relative viability ([4]; first compound 2.53 µM) | relative viability ([4]; first compound 8 µM)
1 | LCLC-103H | 0.686 | 0.838 | 0.794 | 0.666 | 0.645 | 0.785 | 0.725 | 0.723 | 0.739 | 0.641 | 1.14 | 1.09 | 0.976 | 0.91 | 0.979 | – | – | – | – | –
2 | LK-2 | 0.457 | 0.416 | 0.426 | 0.493 | 0.341 | 0.306 | 0.375 | 0.276 | 0.328 | 0.286 | – | – | – | – | – | 1.05 | 0.97 | 0.898 | 0.841 | 0.637
3 | NCI-H358 | 0.635 | 0.463 | 0.419 | 0.471 | 0.485 | 0.198 | 0.214 | 0.212 | 0.214 | 0.236 | – | – | – | – | – | 0.46 | 0.347 | 0.468 | 0.425 | 0.413
4 | NCI-H441 | 1.19 | 1.06 | 1 | 1.2 | 1.06 | 0.248 | 0.282 | 0.282 | 0.237 | 0.221 | 0.572 | 0.449 | 0.538 | 0.511 | 0.331 | – | – | – | – | –
5 | NCI-H520 | – | – | – | – | – | 0.489 | 0.528 | 0.481 | 0.5 | 0.511 | 0.593 | 0.455 | 0.651 | 0.658 | 0.552 | 0.774 | 0.801 | 0.766 | 0.791 | 0.724
6 | NCI-H522 | 0.972 | 0.871 | 0.855 | 0.953 | 0.736 | 0.672 | 0.673 | 0.635 | 0.597 | 0.574 | – | – | – | – | – | – | – | – | – | –
7 | NCI-H661 | – | – | – | – | – | 0.537 | 0.55 | 0.477 | 0.554 | 0.584 | 0.897 | 0.707 | 0.918 | 0.873 | 0.607 | 0.502 | 0.433 | 0.559 | 0.472 | 0.291
8 | NCI-H1299 | – | – | – | – | – | – | – | – | – | – | 1.02 | 1.04 | 1.01 | 0.996 | 0.912 | 0.957 | 0.914 | 0.977 | 0.875 | 0.915
9 | NCI-H1395 | 0.406 | 0.343 | 0.446 | 0.39 | 0.42 | 0.752 | 0.757 | 0.759 | 0.727 | 0.758 | – | – | – | – | – | 0.948 | 1.14 | 1.2 | 0.892 | 0.943
10 | NCI-H1563 | – | – | – | – | – | – | – | – | – | – | 0.868 | 0.921 | 0.729 | 0.755 | 0.737 | 1.04 | 0.894 | 0.815 | 0.683 | 0.817
11 | NCI-H1648 | 0.638 | 0.706 | – | 0.718 | 0.606 | 0.418 | 0.568 | – | 0.538 | 0.544 | – | – | – | – | – | – | – | – | – | –
12 | NCI-H1650 | – | – | – | – | – | 0.471 | 0.376 | 0.361 | 0.485 | 0.452 | 0.181 | 0.22 | 0.231 | 0.202 | 0.222 | 0.688 | 0.828 | 0.86 | 0.736 | 0.647
13 | NCI-H1703 | 0.128 | 0.126 | 0.119 | 0.133 | 0.0959 | – | – | – | – | – | 0.311 | 0.307 | 0.377 | 0.29 | 0.207 | 1.12 | 1.22 | 1.48 | 0.762 | 0.296
14 | NCI-H1793 | 0.527 | 0.386 | 0.407 | 0.346 | 0.436 | 0.53 | 0.509 | 0.52 | 0.49 | 0.644 | – | – | – | – | – | 0.79 | 0.665 | 0.569 | 0.823 | 0.891
15 | NCI-H1944 | 0.56 | 0.576 | 0.419 | 0.525 | 0.434 | 0.449 | 0.428 | 0.382 | 0.461 | 0.489 | – | – | – | – | – | 0.805 | 0.835 | 0.924 | 0.755 | 0.765
16 | NCI-H2009 | – | – | – | – | – | 0.364 | 0.427 | 0.432 | 0.343 | 0.379 | 1.17 | 1.01 | 1.21 | 0.919 | 0.839 | 1.07 | 0.98 | 1.03 | 0.813 | 0.886
17 | NCI-H2023 | – | – | – | – | – | 0.258 | 0.216 | 0.221 | 0.195 | 0.232 | 1.3 | 1.05 | 0.901 | 0.647 | 0.731 | 1.25 | 0.889 | 0.812 | 0.497 | 0.43
18 | NCI-H2170 | 0.921 | 0.88 | 0.589 | 0.867 | 0.682 | 0.516 | 0.487 | 0.452 | 0.462 | 0.418 | – | – | – | – | – | 0.278 | 0.277 | 0.286 | 0.273 | 0.271
19 | NCI-H2228 | – | – | – | – | – | – | – | – | – | – | 1.09 | 1.15 | 1.11 | 0.779 | 0.94 | 1.06 | 1.13 | 1.19 | 0.704 | 0.846
20 | NCI-H2342 | 0.428 | 0.582 | 0.471 | 0.461 | 0.472 | 0.728 | 0.74 | 0.817 | 0.798 | 0.848 | – | – | – | – | – | – | – | – | – | –
21 | SK-LU-1 | – | – | – | – | – | 0.624 | 0.653 | 0.646 | 0.578 | 0.677 | 0.94 | 1.17 | 1.16 | 1.13 | 1.01 | 0.814 | 0.878 | 0.831 | 0.747 | 0.836
22 | SK-MES-1 | – | – | – | – | – | 0.392 | 0.351 | 0.4 | 0.374 | 0.39 | – | – | – | – | – | 0.53 | 0.531 | 0.49 | 0.426 | 0.443
23 | SW 1573 | – | – | – | – | – | 0.496 | 0.46 | 0.659 | 0.562 | 0.573 | 1.04 | 1.16 | 1.06 | 0.946 | 0.94 | 1.1 | 1.24 | 1.13 | 1.08 | 0.955
24 | UMC-11 | – | – | – | – | – | 0.724 | 0.633 | 0.693 | 0.546 | 0.611 | 0.744 | 0.645 | 0.725 | 0.577 | 0.698 | 1.1 | 0.963 | 0.969 | 0.891 | 0.846
